Laboratory results: ChEMBL document CHEMBL1201862, “PubChem BioAssay data set” (2004)
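Tested at 5 concentrations; 48 h exposure; 96-well plates; endpoints linearly interpolated, else capped at highest concentration. Here, GI50 denotes the concentration required for 50% inhibition of growth.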 Active and inactive are the calls of the source. Cut-off read from the data, not from the text of the source: active = GI50 up to about 1.1 µM and inactive = higher.

Key:
Assay in all cases: growth of human tumour cells (NCI), 48 h
[1] = system: HCT-116
[2] = system: HT-29
[3] = system: IGROV-1
[4] = system: K562
[5] = system: KM12
[6] = system: M14
[7] = system: Malme-3M
[8] = system: RXF 393
[9] = system: SF-295
[10] = system: SK-MEL-2
[11] = system: SNB-75
[12] = system: U-251
[13] = system: A498
[14] = system: NCI-H460
[15] = system: SNB-19

Measured: GI50

C/C(CC(=O)Nc1cccc([N+](=O)[O-])c1)=N\NC(=O)CC#N
inactive: [1] > 100 µM | [2] > 100 µM | [3] > 100 µM | [4] > 100 µM | [5] > 100 µM | [6] > 100 µM | [7] > 100 µM | [8] > 100 µM | [9] > 100 µM | [10] > 100 µM | [11] > 100 µM | [12] > 100 µM

O=C(Cc1nc2ccc(C(=O)c3ccccc3)cc2nc1O)C(=O)Nc1ccc(C(F)(F)F)cc1[N+](=O)[O-]
inactive: [13] 90.4 µM | [1] 96.2 µM | [2] 50.9 µM | [3] > 100 µM | [4] 27.6 µM | [5] 59 µM | [6] > 100 µM | [7] > 100 µM | [14] 57.8 µM | [9] 94.2 µM | [10] > 100 µM | [15] 94.8 µM | [11] 45.9 µM | [12] > 100 µM

O=C1CCCCCCCCCCC1CN1CCCCC1 (centres undefined)
inactive: [13] > 100 µM | [1] 58.6 µM | [2] 35.6 µM | [3] 74.3 µM | [4] 94.4 µM | [5] 71.1 µM | [6] > 10 µM | [7] > 100 µM | [14] 51.1 µM | [9] 46.9 µM | [10] > 100 µM | [15] > 100 µM | [11] 39.1 µM | [12] 75.3 µM

COC1(OC)CC2C(=O)N(Cc3ccccc3)C1C(S(=O)(=O)c1ccccc1)C2C(C)S(=O)(=O)c1ccccc1 (centres undefined)
inactive: [1] > 100 µM | [2] > 100 µM | [3] > 100 µM | [4] > 100 µM | [5] > 100 µM | [6] > 100 µM | [7] > 100 µM | [14] > 100 µM | [8] > 100 µM | [9] > 100 µM | [10] > 100 µM | [15] > 100 µM | [12] > 100 µM

CC(=O)Oc1cc(Cl)c(OC(C)=O)c2c(OC(C)=O)c(C)c(O[Si](C)(C)C(C)(C)C)cc12
inactive: [13] 2.09 µM | [1] 3.35 µM | [3] 3.64 µM | [4] 3.22 µM | [5] 12.8 µM | [6] 5.7 µM | [14] 3.79 µM | [8] 3.28 µM | [9] 11 µM | [10] 17.9 µM | [15] 12.8 µM | [12] 2.32 µM

Cc1ccccc1NC(=O)C1C(=O)N(c2ccccc2C)C(=O)/C1=N\NC(N)=S (centres undefined)
inactive: [1] > 100 µM | [2] > 100 µM | [3] > 100 µM | [4] > 100 µM | [5] > 100 µM | [6] > 100 µM | [7] > 100 µM | [9] > 100 µM | [10] > 100 µM | [15] > 100 µM | [11] > 100 µM | [12] > 100 µM

Clc1ccc(Cl)c2[s+]snc12
inactive: [13] > 100 µM | [1] 21.6 µM | [2] 25 µM | [3] > 100 µM | [4] > 45.8 µM | [5] > 67.5 µM | [6] 55.6 µM | [7] > 49.5 µM | [14] 30.7 µM | [9] > 76.6 µM | [15] > 93.5 µM | [11] 41.2 µM | [12] 38.6 µM

COc1cccc(/C=C2\C(=O)N(C(=O)c3ccc(NC(C)=O)cc3)N=C2C)c1
inactive: [1] > 100 µM | [2] > 100 µM | [4] > 100 µM | [6] > 100 µM | [7] > 100 µM | [14] > 100 µM | [9] > 100 µM | [10] > 100 µM | [15] > 100 µM | [11] > 100 µM | [12] > 100 µM

CC(=O)c1c2c(cc3c1CC1(C3)Cc3cc4c(c(C(=O)O)c3C1)CCC4)CCC2 (centres undefined)
inactive: [1] 24.9 µM | [2] 44.5 µM | [3] 50.7 µM | [4] 32.6 µM | [5] 44.2 µM | [6] 41.2 µM | [7] 29.4 µM | [14] 32 µM | [8] 45.5 µM | [9] 38.9 µM | [15] 45.3 µM | [11] 69.8 µM | [12] 26.2 µM

Cc1cc(O)c(C(=O)O)c2c1C(=O)c1c(O)c(OCC(O)C(O)C(O)C(O)CO)c(O)c(O)c1C2=O.NCCNCCO (centres undefined)
inactive: [13] > 100 µM | [2] > 100 µM | [3] > 100 µM | [4] > 100 µM | [5] 39.9 µM | [6] > 100 µM | [7] > 100 µM | [8] > 100 µM | [9] > 100 µM | [10] > 100 µM | [15] > 100 µM | [11] > 100 µM | [12] > 100 µM

Cc1cc(C)nc(NS(=O)(=O)c2ccc(NC(=O)COC(=O)c3cccc4c(=O)c5ccccc5[nH]c34)cc2)n1
inactive: [13] 30.3 µM | [1] 23.7 µM | [2] 33 µM | [3] 43.5 µM | [4] 32 µM | [5] 19.3 µM | [6] 56 µM | [7] 26.7 µM | [14] 49 µM | [8] 36.5 µM | [9] 33.7 µM | [15] 26.8 µM | [11] 31 µM | [12] 20 µM

OC12CCC3(O)c4ccccc4C3C1c1ccccc12 (centres undefined)
inactive: [1] > 100 µM | [2] > 100 µM | [4] > 100 µM | [5] > 100 µM | [6] > 100 µM | [7] > 100 µM | [14] > 100 µM | [8] > 100 µM | [9] > 100 µM | [10] > 100 µM | [15] > 100 µM | [11] > 100 µM | [12] > 100 µM

O=S1(=O)C[C@@H](O)[C@H](O)CS1
inactive: [13] > 100 µM | [1] > 100 µM | [2] > 100 µM | [3] > 100 µM | [4] > 100 µM | [5] > 100 µM | [6] > 100 µM | [7] > 100 µM | [14] > 100 µM | [8] > 100 µM | [9] > 100 µM | [15] > 100 µM | [11] > 100 µM | [12] > 100 µM

COc1cccc(OC)c1C(=O)OCc1ccccc1
inactive: [1] > 100 µM | [2] > 100 µM | [3] > 100 µM | [4] > 100 µM | [5] > 100 µM | [6] > 100 µM | [14] > 100 µM | [8] > 100 µM | [9] > 100 µM | [10] > 100 µM | [11] > 100 µM | [12] > 100 µM

c1ccc2c(c1)[nH]c1c2ncc2[nH]c3ccccc3c21
inactive: [13] 2.72 µM | [1] 1.77 µM | [2] 2.88 µM | [3] 5.19 µM | [4] 2.55 µM | [5] 3.06 µM | [6] 2.75 µM | [7] 19.4 µM | [14] 2.13 µM | [9] 3.58 µM | [10] 7.29 µM | [15] 2.94 µM | [11] 3.52 µM | [12] 2.43 µM
